# Laboratory results reported in ChEMBL document CHEMBL3045457, “Synthesis and insecticidal activity of N-substituted (1,3-thiazole)alkyl sulfoximine derivatives” (2008).
# System: Myzus persicae
# Assay: Insecticidal activity against Myzus persicae (green peach aphid) in horsebean shoot assessed as mortality at 10 mg/l at 25 +/-1 degC treated for 2 secs measured after 16 hr
# Format: functional
row,SMILES,mortality at 10 µg/mL [%]
1,CS(=O)(Cc1cnc(Br)s1)=NC#N (configuration not stated),93
2,CS(=O)(Cc1sc(Cl)nc1C(F)(F)F)=NC#N (configuration not stated),100
3,CS(=O)(Cc1ccc(Cl)nc1)=NC#N (configuration not stated),100
4,CCOc1nc(C(F)(F)F)c(CS(C)(=O)=NC#N)s1 (configuration not stated),68
5,CS(=O)(Cc1cnc(Cl)s1)=NC#N (configuration not stated),75
6,CS(=O)(Cc1sc(Br)nc1C(F)(F)F)=NC#N (configuration not stated),48
7,Cc1nc(Cl)sc1CS(C)(=O)=NC#N (configuration not stated),0
